In US12590062B2, “PD-1/PD-L1 inhibitors” (Gilead Sciences, Inc., priority 2017, dated 2026):

Target: T1, PD-1/PD-L1 interaction (Homo sapiens, UniProt Q9NZQ7)
T1 construct: expressed in transfected cells; host or cells: CHO cells (aAPC-PD-L1) co-cultured with Jurkat cells overexpressing PD-1 and an NFAT-luciferase reporter
Experiment: PD-1/PD-L1 NFAT reporter co-culture assay
Assay type: cell-based
Conditions: Jurkat PD-1 NFAT-luciferase cells co-cultured with aAPC-PD-L1 CHO cells, 6 hrs at 37° C.; read-out: EC50 NFAT Luciferase
Method: PD-1/PD-L1 NEAT Reporter Assay:
Compounds were tested in afunctional co-culture reporter assay in which TCR-mediated NFAT activity is inhibited by the engagement of PD-1 with PD-L1. […] CHO cells expressing surface-bound anti-CD3 antibodies and PD-L1 (artificial antigen presenting cells, aAPC-PD-L1) were first seeded overnight. Jurkat cells overexpressing PD-1 and expressing a luciferase construct under NFAT control are diluted in RPMI assay medium (RPMI 1640 with 2% FBS), mixed with compounds, and immediately seeded on the monolayer of aAPC-PD-L1. The co-culture is then incubated for 6 hrs at 37° C. Luciferase activity is assessed by adding the ONE-Glo reagent and measuring luminescence with a plate reader. EC50 values are calculated from the fit of the dose-response curves to a four-parameter equation (Table 3).

T1 sequence (Q9NZQ7 19-290): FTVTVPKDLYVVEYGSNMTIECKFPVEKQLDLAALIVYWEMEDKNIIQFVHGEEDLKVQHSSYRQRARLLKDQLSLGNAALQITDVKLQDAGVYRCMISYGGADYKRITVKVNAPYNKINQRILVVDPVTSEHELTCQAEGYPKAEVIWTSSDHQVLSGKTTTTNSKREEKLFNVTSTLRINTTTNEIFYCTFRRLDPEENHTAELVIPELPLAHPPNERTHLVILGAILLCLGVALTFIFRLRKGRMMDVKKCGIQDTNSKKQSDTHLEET

| SMILES | EC50 |
| --- | --- |
| COc1nc(OCc2cccc(-c3cccc(COc4nc(OC)c(CNC(C)C(=O)N(C)C)cc4Cl)c3C)c2C)c(Cl)cc1CNC(C)C(=O)N(C)C (centres unmarked) [Example 83, 2,2′-((((((2,2′-dimethyl-[1,1′-biphenyl]-3,3′-diyl)bis(methylene))bis(oxy))bis(5-chloro-2-methoxypyridine-6,3-diyl))bis(methylene))bis(azanediyl))bis(N,N-dimethylpropanamide)] | 1.68 µM |
| COc1nc(OCc2cccc(-c3cccc(COc4nc(OC)c(CNC56CC(C(=O)O)(C5)C6)cc4Cl)c3C)c2C)c(Cl)cc1CNC12CC(C(=O)O)(C1)C2 [Example 85, 3,3′-((((((2,2′-dimethyl-[1,1′-biphenyl]-3,3′-diyl)bis(methylene))bis(oxy))bis(5-chloro-2-methoxypyridine-6,3-diyl))bis(methylene))bis(azanediyl))bis(bicyclo[1.1.1]pentane-1-carboxylic acid)] | 9.77 µM |
| COc1nc(OCc2cccc(-c3cccc(COc4nc(OC)c(CN[C@H](C(=O)O)c5ccccc5)cc4Cl)c3C)c2C)c(Cl)cc1CN[C@H](C(=O)O)c1ccccc1 [Example 86, (2S,2′S)-2,2′-((((((2,2′-dimethyl-[1,1′-biphenyl]-3,3′-diyl)bis(methylene))bis(oxy))bis(5-chloro-2-methoxypyridine-6,3-diyl))bis(methylene))bis(azanediyl))bis(2-phenylacetic acid)] | ≥ 50 µM |
| COc1nc(OCc2cccc(-c3cccc(COc4nc(OC)c(CNC5(C(=O)O)COC5)cc4Cl)c3C)c2C)c(Cl)cc1CNC1(C(=O)O)COC1 [Example 87, 3,3′-((((((2,2′-dimethyl-[1,1′-biphenyl]-3,3′-diyl)bis(methylene))bis(oxy))bis(5-chloro-2-methoxypyridine-6,3-diyl))bis(methylene))bis(azanediyl))bis(oxetane-3-carboxylic acid)] | ≥ 50 µM |
| CNC(=O)[C@H](C)NCc1cc(Cl)c(OCc2cccc(-c3cccc(COc4nc(OC)c(CN[C@@H](C)C(=O)NC)cc4Cl)c3C)c2C)nc1OC [Example 88, (2S,2′S)-2,2′-((((((2,2′-dimethyl-[1,1′-biphenyl]-3,3′-diyl)bis(methylene))bis(oxy))bis(5-chloro-2-methoxypyridine-6,3-diyl))bis(methylene))bis(azanediyl))bis(N-methylpropanamide)] | 4.15 µM |
| COC(=O)[C@@H](C)NCc1cc(Cl)c(OCc2cccc(-c3cccc(COc4nc(OC)c(CN[C@H](C)C(=O)OC)cc4Cl)c3C)c2C)nc1OC [Example 89, Dimethyl 2,2′-((((((2,2′-dimethyl-[1,1′-biphenyl]-3,3′-diyl)bis(methylene))bis(oxy))bis(5-chloro-2-methoxypyridine-6,3-diyl))bis(methylene))bis(azanediyl))(2R,2′R)-dipropionate] | 0.67 µM |
| Cc1c(COc2cc(OCc3cncc(C#N)c3)c(CN[C@@H](C)C(=O)O)cc2Cl)cccc1-c1cccc(-c2ccc(OCCN[C@@H](C)C(=O)O)c(C(F)(F)F)c2)c1C [Example 95, (4-((4″-(2-(((S)-1-carboxyethyl)amino)ethoxy)-2,2′-dimethyl-3″-(trifluoromethyl)-[1,1′:3′,1″-terphenyl]-3-yl)methoxy)-5-chloro-2-((5-cyanopyridin-3-yl)methoxy)benzyl)-L-alanine] | 0.639 µM |
| COc1nc(OCc2cccc(-c3cccc(COc4nc(OC)c(CNC(C)(C)C(=O)O)cc4Cl)c3C)c2C)c(Cl)cc1CN [Example 96, 2-(((6-((3′-(((5-(aminomethyl)-3-chloro-6-methoxypyridin-2-yl)oxy)methyl)-2,2′-dimethyl-[1,1′-biphenyl]-3-yl)methoxy)-5-chloro-2-methoxypyridin-3-yl)methyl)amino)-2-methylpropanoic acid] | 0.912 µM |
| COc1nc(OCc2cccc(-c3cccc(COc4nc(OC)c(CNC(C)(C)C(=O)O)cc4Cl)c3C)c2C)c(Cl)cc1CNC(C)(C)C(=O)O [Example 97, 2,2′-((((((2,2′-dimethyl-[1,1′-biphenyl]-3,3′-diyl)bis(methylene))bis(oxy))bis(5-chloro-2-methoxypyridine-6,3-diyl))bis(methylene))bis(azanediyl))bis(2-methylpropanoic acid)] | 0.028 µM |
| COc1nc(OCc2cccc(-c3cccc(COc4nc(OC)c(CN[C@@H](C)C(=O)O)cc4Cl)c3C)c2C)c(Cl)cc1CN[C@@H](C)C(=O)O [Example 98, (2S,2′S)-2,2′-((((((2,2′-dimethyl-[1,1′-biphenyl]-3,3′-diyl)bis(methylene))bis(oxy))bis(5-chloro-2-methoxypyridine-6,3-diyl))bis(methylene))bis(azanediyl))dipropionic acid] | 0.07 µM |
| CC[C@@H](NCc1cc(Cl)c(OCc2cccc(-c3cccc(COc4nc(OC)c(CN[C@H](CC)C(=O)O)cc4Cl)c3C)c2C)nc1OC)C(=O)O [Example 99, (2R,2′R)-2,2′-((((((2,2′-dimethyl-[1,1′-biphenyl]-3,3′-diyl)bis(methylene))bis(oxy))bis(5-chloro-2-methoxypyridine-6,3-diyl))bis(methylene))bis(azanediyl))dibutyric acid] | 0.157 µM |
| COC(=O)[C@H](C)NCc1cc(Cl)c(OCc2cccc(-c3cccc(COc4nc(OC)c(CN[C@@H](C)C(=O)OC)cc4Cl)c3C)c2C)nc1OC [Example 100, Dimethyl 2,2′-((((((2,2′-dimethyl-[1,1′-biphenyl]-3,3′-diyl)bis(methylene))bis(oxy))bis(5-chloro-2-methoxypyridine-6,3-diyl))bis(methylene))bis(azanediyl))(2S,2′S)-dipropionate] | 0.482 µM |
| COc1nc(OCc2cccc(-c3cccc(COc4nc(OC)c(CN[C@@H](C)C(N)=O)cc4Cl)c3C)c2C)c(Cl)cc1CN[C@@H](C)C(N)=O [Example 101, (2S,2′S)-2,2′-((((((2,2′-dimethyl-[1,1′-biphenyl]-3,3′-diyl)bis(methylene))bis(oxy))bis(5-chloro-2-methoxypyridine-6,3-diyl))bis(methylene))bis(azanediyl))dipropanamide] | 1.8 µM |
| COc1nc(O[C@H]2CCc3c(-c4cccc(-c5ccc(OCCNCCO)cc5)c4C)cccc32)ccc1CNCC(=O)O [Example 102, (S)-((6-((4-(4′-(2-((2-hydroxyethyl)amino)ethoxy)-2-methyl-[1,1′-biphenyl]-3-yl)-2,3-dihydro-1H-inden-1-yl)oxy)-2-methoxypyridin-3-yl)methyl)glycine] | 13.2 µM |
| COc1nc(O[C@H]2CCc3c(-c4cccc(-c5ccc(OCCNC[C@@H](O)CC(=O)O)cc5)c4C)cccc32)ccc1CNCC(=O)O [Example 103, (S)-4-((2-((3′-((S)-1-((5-(((carboxymethyl)amino)methyl)-6-methoxypyridin-2-yl)oxy)-2,3-dihydro-1H-inden-4-yl)-2′-methyl-[1,1′-biphenyl]-4-yl)oxy)ethyl)amino)-3-hydroxybutanoic acid] | 14.9 µM |
| COc1nc(OCc2cccc(-c3cccc(COc4nc(OC)c([C@@H]5NCC[C@@H]5C(=O)O)cc4Cl)c3C)c2C)c(Cl)cc1[C@@H]1NCC[C@@H]1C(=O)O [Example 104, (2R,2′R,3S,3′S)-2,2′-((((2,2′-dimethyl-[1,1′-biphenyl]-3,3′-diyl)bis(methylene))bis(oxy))bis(5-chloro-2-methoxypyridine-6,3-diyl))bis(pyrrolidine-3-carboxylic acid)] | ≥ 50 µM |
| C=CCOC(=O)[C@H]1CCN[C@H]1c1cc(Cl)c(OCc2cccc(-c3cccc(COc4nc(OC)c([C@@H]5NCC[C@@H]5C(=O)O)cc4Cl)c3C)c2C)nc1OC [Example 105, (2R,3S)-2-(6-((3′-(((5-((2R,3S)-3-((allyloxy)carbonyl)pyrrolidin-2-yl)-3-chloro-6-methoxypyridin-2-yl)oxy)methyl)-2,2′-dimethyl-[1,1′-biphenyl]-3-yl)methoxy)-5-chloro-2-methoxypyridin-3-yl)pyrrolidine-3-carboxylic acid] | ≥ 50 µM |
| Cc1c(-c2ccc(OCCNC[C@H](O)CC(=O)O)cc2)cccc1-c1cccc(-c2ccc(OCCNC[C@H](O)CC(=O)O)cc2)c1C [Example 107, (3R,3′R)-4,4′-((((2′,2″-dimethyl-[1,1′:3′,1″:3″,1′″-quaterphenyl]-4,4′″-diyl)bis(oxy))bis(ethane-2,1-diyl))bis(azanediyl))bis(3-hydroxybutanoic acid)] | 35 µM |
| Cc1c(COc2cc(OCc3cncc(C#N)c3)c(CNC[C@@H](O)CC(=O)O)cc2Cl)cccc1-c1ccc2c(c1)OC(CNC[C@@H](O)CC(=O)O)CO2 (stereo partly drawn) [Example 108, (3S)-4-((4-((3-(3-((((S)-3-carboxy-2-hydroxypropyl)amino)methyl)-2,3-dihydrobenzo[b] [1,4]dioxin-6-yl)-2-methylbenzyl)oxy)-5-chloro-2-((5-cyanopyridin-3-yl)methoxy)benzyl)amino)-3-hydroxybutanoic acid] | 13.9 µM |
| COc1nc(OCc2cccc(-c3cccc(COc4nc(OC)c(CN[C@@H](CCC(N)=O)C(=O)O)cc4Br)c3C)c2C)c(Br)cc1CN[C@@H](CCC(N)=O)C(=O)O [Example 115, (2S,2′S)-2,2′-((((((2,2′-dimethyl-[1,1′-biphenyl]-3,3′-diyl)bis(methylene))bis(oxy))bis(5-bromo-2-methoxypyridine-6,3-diyl))bis(methylene))bis(azanediyl))bis(5-amino-5-oxopentanoic acid)] | ≥ 50 µM |
